According to patent US4514413A, “Gastric acid secretion inhibiting N-(imidazol-1-ylalkyl)thiourea derivatives” (BASF Aktiengesellschaft, priority 1982, dated 1985):

What was measured:
histamine H2 receptor = molecular target: T1, histamine H2 receptor (Rattus norvegicus, UniProt P25102); experiment: Inhibition of the dimaprit-induced lowering of the blood pressure (histamine H2 receptor-blocking action); type: in vivo, male Sprague-Dawley rats; conditions: for R.A. (relative activity), inhibition of the dimaprit-induced lowering of the blood pressure / inhibition of dimaprit-induced lowering of the blood pressure (in words): rat
T1 construct: In male Sprague-Dawley rats (weight 210-310 g) which have been anesthetized with urethane; from tissue; host or cells: whole animal in vivo: anesthetized male Sprague-Dawley rats
T1 sequence (P25102 whole entry): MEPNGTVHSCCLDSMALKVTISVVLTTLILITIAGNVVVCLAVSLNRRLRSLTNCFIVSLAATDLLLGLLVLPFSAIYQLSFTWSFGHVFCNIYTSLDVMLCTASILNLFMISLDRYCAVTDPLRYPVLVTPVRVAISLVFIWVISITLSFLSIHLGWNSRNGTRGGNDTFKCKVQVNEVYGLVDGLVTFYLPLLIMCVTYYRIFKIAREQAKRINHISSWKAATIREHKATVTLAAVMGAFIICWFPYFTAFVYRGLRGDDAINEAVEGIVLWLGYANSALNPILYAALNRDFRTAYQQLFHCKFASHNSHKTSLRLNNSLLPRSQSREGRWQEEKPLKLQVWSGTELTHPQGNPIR
Method: The substances tested were administered intravenously 5 minutes before the dimaprit injection. The ED 50% is determined as the dose which inhibits the dimaprit-induced lowering of the blood pressure by 50% (Table 1).

[1] = test system: secretion of gastric acid; experiment: Inhibition of the gastric secretion in the rat (pH at the surface of the gastric mucous membrane); type: in vivo, female Sprague-Dawley rats; conditions: for R.A. (relative activity), inhibition of the gastric secretion: cimetidine = 1.00, subcutaneous administration; for ED 0.75 (dose which increases the pH by 0.75 on average compared with untreated control animals): subcutaneous administration, 1 hour pretreatment, 48 h fasted
Method: Inhibition of the secretion of gastric acid results in an increase in the pH of the gastric mucus membrane. This is investigated on groups of 5 conscious female Sprague-Dawley rats weighing 160-180 g. The animals receive no food for 48 hours (water ad libitum), and are pretreated subcutaneously with various doses of the test substances. […] The dose which increases the pH by 0.75 on average compared with untreated control animals is determined, as the ED 0.75, from the linear regression between the logarithms of the applied doses and the increase in the pH (Table 2).

[2] = cimetidine = 1.00, urethane anesthesia, intravenous administration
[3] = urethane anesthesia, intravenous administration

CN/C(=N/CCSCc1nc[nH]c1C)NC#N [Cimetidine, reference compound]
R.A. (relative activity), inhibition of the dimaprit-induced lowering of the blood pressure (histamine H2 receptor; [2]): 1.00 | inhibition of dimaprit-induced lowering of the blood pressure (in words) (histamine H2 receptor; [3]): specific and dose-dependent inhibition | R.A. (relative activity), inhibition of the gastric secretion [1]: 1.00 | ED 0.75 (dose which increases the pH by 0.75 on average compared with untreated control animals) [1]: 0.45 mg/kg

Cc1nccn1CCCNC(=S)NCCSCc1ccc(CN(C)C)o1.O=C(O)C(=O)O.O=C(O)C(=O)O [Example No. 1, N-[3-(2-methylimidazol-1-yl)-propyl]-N'-{2-[[5-(N,N-dimethylaminomethyl)-furan-2-yl]-methylthio]-ethyl}-thiourea dioxalate]
R.A. (relative activity), inhibition of the dimaprit-induced lowering of the blood pressure (histamine H2 receptor; in vivo, iv): 23.91 | R.A. (relative activity), inhibition of the gastric secretion [1]: 8.65 | ED 0.75 (dose which increases the pH by 0.75 on average compared with untreated control animals) ([1]; in mg/kg): 0.052 | times more effective than cimetidine ([1]; vs cimetidine, inhibition of gastric acid secretion, subcutaneous): 8.7 times | times more effective than ranitidine ([1]; vs ranitidine, inhibition of gastric acid secretion, subcutaneous): 1.7 times

CC(C)c1nccn1CCCNC(=S)NCCSCc1ccc(CN(C)C)o1 [Example No. 2, N-[3-(2-isopropylimidazol-1-yl)-propyl]-N'-{2-[[5-(N,N-dimethylaminomethyl)-furan-2-yl]-methylthio]-ethyl}-thiourea]
R.A. (relative activity), inhibition of the dimaprit-induced lowering of the blood pressure (histamine H2 receptor; [2]): 22.00

CCc1nccn1CCCNC(=S)NCCSCc1ccc(CN(C)C)o1 [Example No. 3, N-[3-(2-ethylimidazol-1-yl)-propyl]-N'-{2-[[5-(N,N-dimethylaminomethyl)-furan-2-yl]-methylthio]-ethyl}-thiourea dioxalate]
R.A. (relative activity), inhibition of the dimaprit-induced lowering of the blood pressure (histamine H2 receptor; [2]): 12.94

CCCc1nccn1CCCNC(=S)NCCSCc1ccc(CN(C)C)o1 [Example No. 4]
R.A. (relative activity), inhibition of the dimaprit-induced lowering of the blood pressure (histamine H2 receptor; [2]): 10.00

Cc1nc(C)n(CCCNC(=S)NCCSCc2ccc(CN(C)C)o2)c1C [Example No. 8, N[3-(2,4,5-trimethylimidazol-1-yl)-propyl]-N'{2-[[5-(N,Ndimethylamino-methyl)-furan-2-yl]-methylthio]-ethyl}-thiourea]
R.A. (relative activity), inhibition of the dimaprit-induced lowering of the blood pressure (histamine H2 receptor; [2]): 26.19

CCc1ncc(C)n1CCCNC(=S)NCCSCc1ccc(CN(C)C)o1 [Example No. 9]
R.A. (relative activity), inhibition of the dimaprit-induced lowering of the blood pressure (histamine H2 receptor; [2]): 10.00

CNC(=C[N+](=O)[O-])NCCSCc1ccc(CN(C)C)o1 [Ranitidine, reference compound]
R.A. (relative activity), inhibition of the dimaprit-induced lowering of the blood pressure (histamine H2 receptor; in vivo, iv): 10.48 | inhibition of dimaprit-induced lowering of the blood pressure (in words) (histamine H2 receptor; [3]): specific and dose-dependent inhibition | R.A. (relative activity), inhibition of the gastric secretion [1]: 5.23 | ED 0.75 (dose which increases the pH by 0.75 on average compared with untreated control animals) ([1]; in mg/kg): 0.086

CN(C)CCCSC(=N)N [dimaprit, S-[3-(N,N-dimethylamino)-propyl]-isothiourea, reference compound]
average lowering of the blood pressure (histamine H2 receptor; dimaprit 3.16 mg intravenously, initial pressures 100±1.1 mm Hg, N=70): 27±0.7 mm Hg
